Source: patent US20150140123A1, “Protein expression analyses for identifying genotoxic compounds” (Merck Patent GmbH, priority 2012, published 2015)
Like-named read-outs stand apart in the source and are kept apart here.

How the values were obtained:
[1] = tested on: HepG2 cells; test: High content imaging cytotoxicity parameters: selected cell count per valid field (SCC) and CMFDA cytoplasm average intensity
Method: (§1) HepG2 cells (Order No. HB-8065, Lot. 58483209, ATCC, Manassas, USA) were cultured in DMEM/F12 with L-Glutamine and 15 mM Hepes supplemented with 10% (v/v) FBS, 1% (v/v) penicillin (10 kU/ml)/streptomycin (10 mg/ml) solution, 0.1% (v/v) gentamicin (50 mg/ml), and 1 mM sodium pyruvate at 37° C. and 5% CO2 in culture flasks. Depending on the experiment, an appropriate number of cells were seeded onto plates after detaching of the cells using trypsin and cells were cultured at 37° C. and 5% CO2 for 24 h prior to treatment. All experiments were performed three times with cells of passages 4-20.
(§2) Cells were seeded onto black Poly-D-Lysin coated 96-well-plates (BD Biocoat, Franklin Lakes, USA) (0.02×10^6 cells/well) and left 24 h for adherence and then treated with test compounds at a maximum concentration of 1 mM which is recommended by the ICH S2(R1) guideline (EMA, 2011). For each compound, nine concentrations were tested with 2-fold serial dilutions. DMSO 1% (v/v) served as vehicle control for the experiments. The treatment procedure was different for direct-genotoxic and pro-genotoxic compounds. The treatment for direct genotoxic compounds was ongoing and was repeated daily over 48 h. Pro-genotoxic compounds were incubated for 6 h together with metabolic activation system (to limit the cytotoxic effect of the S9-mixture). After this period, cells were washed with cell media followed by 18-repeated daily over 48 h. The metabolic activation system used consisted of the following components and concentrations: 8 mM MgCl2, 32.8 mM KCl, 12 mM NADPH, 124 mM phosphate buffer and 2500 pmol/ml cytochrome P450 (CYP) content in the pre-mixture corresponding to 2.4 mM MgCl2, 9.8 mM KCl, 3.6 mM NADPH, 37.2 mM phosphate buffer, and 750 pmol/ml CYP as final concentrations after dilution 1:3.33 with cell culture media.
After treatment, cells were rinsed with PBS (Gibco Invitrogen, Karlsruhe, Germany), and then stained with 10 μM CellTracker Green 5-Chloromethylfluorescein Diacetate (CMFDA) (Invitrogen, Karlsruhe, Germany) in cell culture media for 30 min. CMFDA is per se non-fluorescent and is hydrolyzed by esterase in viable cells to a fluorescent-dye. The reaction with thiol groups leads to a cell-impermeable fluorescent-dye-adduct. The esterase activity can be used as an indicator for viability of cells (Papadopoulos et al., 1994, J Immunol Methods 177, 101-11). Afterwards, cells were washed with PBS and fixed with 3.7% Formaldehyde (Sigma-Aldrich, Taufkirchen, Germany) in PBS for 20 min. After that, cells were washed with PBS and blocked and permeabilized with 2% donkey serum (Millipore, Schwalbach, Germany) and 0.25% Triton X-100 (Sigma-Aldrich, Taufkirchen, Germany) in PBS for 30 min. Primary antibodies were diluted in Blocking/Permeabilization solution to final concentrations of 4 μg/ml anti-p-Chk1 (Ser345) goat polyclonal antibody IgG (santa cruz, Santa Cruz, USA), 4 μg/ml anti-p-ATM (Ser1981) mouse monoclonal antibody IgG1K (Millipore, Schwalbach, Germany) and added to the cells. After incubation for 16-18 h, cells were washed with 0.05% Tween 20 (Calbiochem, Darmstadt, Germany) in PBS, and the secondary antibody/16 μM Hoechst staining solution Blocking/Permeabilization solution was added. Secondary antibodies were diluted 1:400 (Alexa Fluor 555 donkey anti-goat, Alexa Fluor 647 donkey anti-mouse, Invitrogen, Karlsruhe, Germany). After an incubation of 1 h, followed by two additional washing steps with 0.05% Tween 20, cells were washed with PBS and finally PBS was added and cells were measured.
Image acquisition was performed on the ArrayScan VTI HCS Reader (Cellomics, Pittsburgh, USA) using a 20× objective. To detect enough cells, 50 images starting at the middle of each well were gathered.
• Channel 1: selected cell count per valid field • Channel 2: CMFDA cytoplasm average intensity • Channel 3: p-Chk1 (Ser345) nucleus average intensity • Channel 4: p-ATM (Ser1981) nucleus average intensity

[2] = tested on: p-p53 (Ser15), p21, p-H2A.X (Ser139), p-ATM (Ser1981), p-Chk1 (Ser345) in HepG2 cells
Method: as §1, §2
Two different staining procedures were performed for each compound with and without metabolic activation system:
After treatment, cells were rinsed with PBS (Gibco Invitrogen, Karlsruhe, Germany), and then fixed with 3.7% formaldehyde (Sigma-Aldrich, Taufkirchen, Germany) in PBS for 20 min. After an additional washing step with PBS, cells were blocked and permeabilized with 2% donkey serum (Millipore, Schwalbach, Germany) and 0.25% Triton X-100 (Sigma-Aldrich, Taufkirchen, Germany) in PBS for 30 min. Primary antibodies were diluted to final concentrations of 2 μg/ml anti-p-p53 (Ser15) rabbit monoclonal antibody IgG (Invitrogen, Karlsruhe, Germany), 0.8 μg/ml anti-p21 goat polyclonal antibody IgG, (R&D systems, Minneapolis, USA); 4 μg/ml anti-p-Histone H2A.X (Ser139) mouse monoclonal antibody IgG1 (Millipore, Schwalbach, Germany) in Blocking/Permeabilization solution were added afterwards. After incubation for 16-18 h, cells were washed with 0.05% Tween 20 (Calbiochem, Darmstadt, Germany) in PBS and the secondary antibody/16 μM Hoechst staining solution in Blocking/Permeabilization solution was added. Secondary antibodies were diluted 1:400 (Alexa Fluor 488 donkey anti-rabbit, Alexa Fluor 555 donkey anti-goat, Alexa Fluor 647 donkey anti-mouse, Invitrogen, Karlsruhe, Germany). After an incubation of 1 h, followed by two additional washing steps with 0.05% Tween 20, cells were washed with PBS and finally PBS was added and cells were measured.
After treatment, cells were rinsed with PBS (Gibco Invitrogen, Karlsruhe, Germany), and then stained with 10 μM CellTracker Green 5-Chloromethylfluorescein Diacetate (CMFDA) (Invitrogen, Karlsruhe, Germany) in cell culture media for 30 min. CMFDA is per se non-fluorescent and is hydrolyzed by esterase in viable cells to a fluorescent-dye. The reaction with thiol groups leads to a cell-impermeable fluorescent-dye-adduct. The esterase activity can be used as an indicator for viability of cells (Papadopoulos et al., 1994, J Immunol Methods 177, 101-11). Afterwards, cells were washed with PBS and fixed with 3.7% Formaldehyde (Sigma-Aldrich, Taufkirchen, Germany) in PBS for 20 min.

[3] = tested on: p-ATM (Ser1981); test: High content imaging of p-ATM (Ser1981) nucleus average intensity; format: cell-based, human; conditions: HepG2 cells, 48 h; fold-change over vehicle control, threshold 1.8
Method: as §1
Cells were seeded onto black Poly-D-Lysin coated 96-well-plates (BD Biocoat, Franklin Lakes, USA) (0.02×10^6 cells/well) and left 24 h for adherence and then treated with test compounds at a maximum concentration of 1 mM which is recommended by the ICH S2(R1) guideline (EMA, 2011). […]
After treatment, cells were rinsed with PBS (Gibco Invitrogen, Karlsruhe, Germany), and then stained with 10 μM CellTracker Green 5-Chloromethylfluorescein Diacetate (CMFDA) (Invitrogen, Karlsruhe, Germany) in cell culture media for 30 min. […] After an incubation of 1 h, followed by two additional washing steps with 0.05% Tween 20, cells were washed with PBS and finally PBS was added and cells were measured.
Image acquisition was performed on the ArrayScan VTI HCS Reader (Cellomics, Pittsburgh, USA) using a 20× objective. […]

[4] = HepG2 cells ± S9, 48 h, positive if at least one of five proteins shows fold-change above threshold (2.1 p-Chk1, p-H2A.X; 1.8 p21, p-ATM; 1.9 p-p53)
[5] = HepG2 cells, 48 h, CMFDA cytoplasm average intensity, with rat liver S9 (+S9)
[6] = HepG2 cells, 48 h, CMFDA cytoplasm average intensity, without metabolic activation (−S9)
[7] = HepG2 cells, 48 h, selected cell count per valid field, with rat liver S9 (+S9)
[8] = HepG2 cells, 48 h, selected cell count per valid field, without metabolic activation (−S9)

| Molecule | result for the five protein markers tested (compound set as positive or negative) [2, 4] | CMFDA +S9 highest conc. <50% cytotox. over control [1, 5] | CMFDA −S9 highest conc. <50% cytotox. over control [1, 6] | SCC +S9 highest conc. <50% cytotox. over control [1, 7] | SCC −S9 highest conc. <50% cytotox. over control [1, 8] | CMFDA +S9 highest conc. <50% cytotox. over control ([1]; human, 48 h) | CMFDA −S9 highest conc. <50% cytotox. over control ([1]; human, 48 h) | SCC +S9 highest conc. <50% cytotox. over control ([1]; human, 48 h) | SCC −S9 highest conc. <50% cytotox. over control ([1]; human, 48 h) | result for the five protein markers tested (compound set as positive or negative) [2] | other results |
| --- | --- | --- | --- | --- | --- | --- | --- | --- | --- | --- | --- |
| Oc1ccc(Cl)cc1Cl [2,4-Dichlorophenol] | positive | – | – | – | – | – | – | – | – | – | CMFDA +S9 highest conc. <50% cytotox. over control ([1]; human): 1000 µM; CMFDA −S9 highest conc. <50% cytotox. over control ([1]; human): 1000 µM; SCC +S9 highest conc. <50% cytotox. over control ([1]; human): 500 µM; SCC −S9 highest conc. <50% cytotox. over control ([1]; human): 250 µM |
| Cc1ccc(N)cc1N [2,4-diaminotoluene] | no positive result | 1000 µM | 1000 µM | 1000 µM | 1000 µM | – | – | – | – | – | – |
| [Cl][Cd][Cl] [Cadmium chloride] | no positive result | 62.5 µM | 62.5 µM | 125 µM | 31.25 µM | – | – | – | – | – | – |
| CN(C)N=O [Dimethylnitrosamine] | no positive result | 1000 µM | 1000 µM | 1000 µM | 1000 µM | – | – | – | – | – | – |
| CCN(N=O)C(N)=O [Ethylnitrosourea] | no positive result | 1000 µM | 1000 µM | 1000 µM | 1000 µM | – | – | – | – | – | – |
| C=CCc1ccc(O)c(OC)c1 [Eugenol] | – | – | – | – | – | 125 µM | 1000 µM | 125 µM | 1000 µM | positive | – |
| c1ccc2c(c1)ccc1ccccc12 [Phenanthrene] | – | – | – | – | – | 1000 µM | 1000 µM | 1000 µM | 1000 µM | – | result for p-ATM (Ser1981) [3]: positive |
| CCCOC(=O)c1cc(O)c(O)c(O)c1 [Propyl gallate] | – | – | – | – | – | 1000 µM | 1000 µM | 1000 µM | 500 µM | positive | – |
| O=[N+]([O-])c1ccc(O)cc1 [p-Nitrophenol] | – | – | – | – | – | – | – | – | – | positive | – |
| Sodium xylene sulfonate | – | 1000 µM | 1000 µM | 1000 µM | 1000 µM | – | – | – | – | – | – |
